Marks after values point to notes of the source that are not given here.
Columns and labels:
Mz-ChA-1 [1] = assay: MTT cytotoxicity assay, substances alone, Mz-ChA-1; format: cell-based, human; details: Mz-ChA-1
Protocol: (§1) Suitable vehicle controls were also included.
(§2) The effect of the treatments on cell viability was measured by the MTT assay as previously described. A higher than 30% reduction of cell viability was considered as a significant cytotoxic effect.

Bx-PC3 [2] = assay: Combination assay with sorafenib (MTT), Bx-PC3; format: cell-based, human;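 for increase of sorafenib cytotoxicity in combination: percent increase of sorafenib cell viability inhibition versus sorafenib alone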
Protocol: as §1
(§3) The type of interaction (synergistic, additive, or antagonistic) among sorafenib and test substances or positive controls was evaluated by measuring the reversal ratio value (RR), combination index (CI), and isobolographic analysis (IB), as previously described.

[3] = system: noncancerous H69 cholangiocytes; assay: MTT cytotoxicity assay (tolerability), substances alone, H69; format: cell-based, human; details: H69 noncancerous cholangiocytes; substance alone; 4 h exposure + 72 h recovery
Protocol: as §1, §2

phospho(Tyr705)-STAT3 = assay: Western blotting of STAT3 phosphorylation in Bx-PC3 cells; format: cell-based, human
Protocol: as §1
Confluent cells were seeded in 6-well plates (5 × 10^5 cells/well), treated as described above, then harvested by centrifugation and washed in PBS. After lysis with a suitable buffer, the Western blotting analysis was carried out, according to previously published methods. […] The levels of phospho(Tyr705)-STAT3 were normalized against total STAT3 ones.

[4] = system: noncancerous H69 cholangiocytes; assay: Combination assay with sorafenib (MTT), tolerability in H69; format: cell-based, human; details: sesquiterpene 10 μg/mL combined with sorafenib (protective effect at sorafenib 10 μg/mL)
Protocol: as §1, §3

HepG2 [5] = assay: MTT cytotoxicity assay, substances alone, HepG2; format: cell-based, human; details: HepG2
Protocol: as §1, §2

HepG2 [6] = assay: Combination assay with sorafenib (MTT), HepG2; format: cell-based, human; details: for increase of sorafenib cytotoxicity in combination: verapamil/MK571 1 µg/mL or sesquiterpenes 10 µg/mL;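 for increase of sorafenib cytotoxicity in combination: percent increase of sorafenib cell viability inhibition versus sorafenib alone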
Protocol: as §1, §3

MRP1 [7] = assay: RT-qPCR gene expression in Bx-PC3 cells, MRP1; format: cell-based, human; details: substance in combination with sorafenib, given for MRP1 and MRP2 together
Text: as §1

Pgp [8] = assay: Immunofluorescence analysis in Bx-PC3 cells, Pgp; format: cell-based, human
Protocol: as §1
(§4) The analysis was performed according to previously published methods. Confluent cells were seeded in 24-well plates (2 × 10^4 cells/well), allowed to adhere overnight, then treated as described above. After treatment, cells were fixed in pure methanol and washed with 4% bovine serum albumin (BSA) and PBS + Tween 20 (PBS-T) for 1 h. […] The expression and localization of Pgp, MRP1, and MRP2 pumps into cells were analyzed by using a Cytation 1 Cell Imaging Multimode Reader (Biotech, USA).

[9] = set-up: method as in PMID 30659321; details: previous in vivo study; cited from earlier work
MRP2 [10] = assay: Immunofluorescence analysis in Bx-PC3 cells, MRP2; format: cell-based, human
Protocol: as §1, §4

Pgp [11] = molecular target: T1, Pgp (Homo sapiens, UniProt P08183); assay: ABC-mediated drug efflux assay, rhodamine 123 accumulation, HepG2 cells; details: 2 h pre-treatment, sesquiterpenes 10 μg/mL, verapamil 1 μg/mL, vs control
T1 sequence (P08183 whole entry): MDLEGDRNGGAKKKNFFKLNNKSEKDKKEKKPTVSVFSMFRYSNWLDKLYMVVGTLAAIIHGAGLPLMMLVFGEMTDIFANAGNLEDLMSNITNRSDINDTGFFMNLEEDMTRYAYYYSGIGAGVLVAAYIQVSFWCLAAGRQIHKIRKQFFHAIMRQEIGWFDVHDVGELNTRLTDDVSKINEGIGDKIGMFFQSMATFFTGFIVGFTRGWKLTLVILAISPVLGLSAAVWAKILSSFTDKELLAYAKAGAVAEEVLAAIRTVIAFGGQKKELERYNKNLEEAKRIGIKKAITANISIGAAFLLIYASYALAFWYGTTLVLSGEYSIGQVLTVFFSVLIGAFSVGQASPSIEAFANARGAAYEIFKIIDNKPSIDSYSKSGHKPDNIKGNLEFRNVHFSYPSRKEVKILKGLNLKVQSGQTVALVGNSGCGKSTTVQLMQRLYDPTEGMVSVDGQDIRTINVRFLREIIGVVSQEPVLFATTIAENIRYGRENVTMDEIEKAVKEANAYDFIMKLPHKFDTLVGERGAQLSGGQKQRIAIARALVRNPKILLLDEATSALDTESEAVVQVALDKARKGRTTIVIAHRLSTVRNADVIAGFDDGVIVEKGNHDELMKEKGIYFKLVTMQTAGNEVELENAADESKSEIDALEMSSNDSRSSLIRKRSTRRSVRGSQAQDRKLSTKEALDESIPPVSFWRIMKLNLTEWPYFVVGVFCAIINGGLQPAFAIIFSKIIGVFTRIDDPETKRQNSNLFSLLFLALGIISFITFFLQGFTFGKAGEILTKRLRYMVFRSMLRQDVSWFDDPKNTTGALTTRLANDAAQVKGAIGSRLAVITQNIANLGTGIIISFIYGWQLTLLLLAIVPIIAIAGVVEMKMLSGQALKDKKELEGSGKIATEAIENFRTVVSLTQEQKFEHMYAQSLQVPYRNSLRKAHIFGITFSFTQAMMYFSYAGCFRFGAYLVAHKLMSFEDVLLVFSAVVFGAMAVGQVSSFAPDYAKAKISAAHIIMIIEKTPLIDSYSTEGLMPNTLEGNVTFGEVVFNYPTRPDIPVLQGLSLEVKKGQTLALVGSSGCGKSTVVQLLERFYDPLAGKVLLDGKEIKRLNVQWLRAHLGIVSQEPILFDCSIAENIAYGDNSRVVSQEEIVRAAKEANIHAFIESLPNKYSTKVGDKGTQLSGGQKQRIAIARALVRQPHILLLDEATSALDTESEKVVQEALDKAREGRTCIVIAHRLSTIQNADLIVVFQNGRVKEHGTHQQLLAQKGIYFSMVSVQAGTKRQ
Protocol: (§5) The ability of β-caryophyllene and β-caryophyllene oxide to inhibit the activity of Pgp and MRP1/2 transporters was measured according to previously published methods with slight modifications. […] Fluorescence was measured at excitation and emission wavelengths of 485 nm and 535 nm for both probes, using a Cytation 1 Cell Imaging Multimode Reader (Biotech, Santa Clara, CA, USA). Results were normalized to viable cells and expressed as percentage of the negative control.

MRP2 [12] = assay: RT-qPCR gene expression in Bx-PC3 cells, MRP2; details: substance in combination with sorafenib, given for MRP1 and MRP2 together
Protocol: (§6) Confluent cells were treated with the test substances, both alone or in combination with the anticancer drug, for 4 h, then washed and incubated for a further 72 h (Figure 1), according to previously published protocols [20]. […] Suitable vehicle controls were also included.
(§7) The results of mRNA abundance for the targeted genes in each sample were normalized on the basis of GAPDH (Bio-Rad, Hercules, CA, USA) mRNA. Data are expressed as 2^−ΔCt, calculated using the CFX Manager software (Bio-Rad).

MRP1/2 [13] = assay: ABC-mediated drug efflux assay, calcein-AM accumulation, Mz-ChA-1 cells; format: cell-based, human; details: 2 h pre-treatment, sesquiterpenes 10 μg/mL, vs control
MDR1 = assay: RT-qPCR gene expression in Bx-PC3 cells, MDR1
Protocol: as §6, §7

Bx-PC3 cells = assay: Wound healing assay (cell migration); format: cell-based, human
Protocol: To evaluate the effect of caryophyllane sesquiterpenes, both alone and in combination with sorafenib, on the cell migration rate, the wound healing assay was performed. Bx-PC3 cells were seeded in 24-well plate at a density of 2.5 × 10^5 cells/well. After 24 h, the wound was created by scratching the well bottom with a 100 μL pipette tip, then the cells were treated under the scheduled conditions and images were captured at 0, 4, and 72 h using a Cytation 1 Cell Imaging Multi-Mode Reader. […] Results were expressed as wound area percentage with respect to that of the same well at zero time. The positive controls were also included.

Bx-PC3 [14] = assay: MTT cytotoxicity assay, substances alone, Bx-PC3; format: cell-based, human
Protocol: as §1, §2

MRP1/2 [15] = assay: ABC-mediated drug efflux assay, calcein-AM accumulation, Bx-PC3 cells; format: cell-based, human; details: 2 h pre-treatment, sesquiterpenes 10 μg/mL, MK571 1 μg/mL, vs control
MRP1 [16] = assay: Immunofluorescence analysis in Bx-PC3 cells, MRP1; format: cell-based, human; details: substance 10 µg/mL in combination with sorafenib 10 µg/mL
Protocol: as §1, §4

[17] = set-up: method as in PMID 33081075; details: European Food Safety Authority; cited from earlier work
Pgp [18] = molecular target: T1, Pgp; assay: ABC-mediated drug efflux assay, rhodamine 123 accumulation, Bx-PC3 cells; details: 2 h pre-treatment, sesquiterpenes 10 μg/mL, verapamil 1 μg/mL, vs control
Protocol: as §5

Mz-ChA-1 [19] = assay: Combination assay with sorafenib (MTT), Mz-ChA-1; format: cell-based, human;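 for increase of sorafenib cytotoxicity in combination: percent increase of sorafenib cell viability inhibition versus sorafenib alone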
Protocol: as §1, §3

MRP1/2 [20] = assay: ABC-mediated drug efflux assay, calcein-AM accumulation, HepG2 cells; format: cell-based, human; details: 2 h pre-treatment, sesquiterpenes 10 μg/mL, vs control
Pgp [21] = molecular target: T1, Pgp; assay: ABC-mediated drug efflux assay, rhodamine 123 accumulation, Mz-ChA-1 cells; details: 2 h pre-treatment, sesquiterpenes 10 μg/mL, verapamil 1 μg/mL, vs control
Protocol: as §5

[22] = substance alone, 4 h exposure + 72 h recovery
[23] = substance in combination with sorafenib 10 μg/mL

With C=C1CC[C@H]2O[C@]2(C)CC[C@@H]2[C@@H]1CC2(C)C [β-Caryophyllene oxide, β-caryophyllene oxide] the “IC50 higher than that of sorafenib” value (Mz-ChA-1 [1]) was 1.2 fold, the “inhibition of cell viability” value (Mz-ChA-1 [1]; 50 µg/mL) was 16% and the “inhibition of cell viability” value (Mz-ChA-1 [1]; 250 µg/mL) was 90%. The “IC50 (CL)” value (Mz-ChA-1 [1]; [22]) was 94.5 (90.1–99.1) ** µg/mL, the “reduction of sorafenib IC50 in the presence of the substance” value (“reduction of sorafenib IC50” for short) (Bx-PC3 [2]) was 9 fold and the “combination index (CI) with sorafenib” value (Bx-PC3 [2]; CI lower than 1 = synergistic) was 0.26. The “increase of sorafenib cytotoxicity in combination” value (from here on “increase of sorafenib cytotoxicity”) (Bx-PC3 [2]; sesquiterpenes 10 µg/mL, sorafenib concentration not stated (Figure 3F)) was 64%, the “IC50 (CL)” value [3] was 99.7 (93.1–106.9) *** µg/mL and the “increase of STAT3 phosphorylation at tyrosine 705” value (phospho(Tyr705)-STAT3; substance alone, sorafenib and sesquiterpenes 10 μg/mL, verapamil/MK571 1 μg/mL, normalized to total STAT3) was “approximately 3 fold”. For the same compound, the “reduction of phospho(Tyr705)-STAT3 with respect to sorafenib” value (phospho(Tyr705)-STAT3; [23]) was 2.6 fold, the “effect on sorafenib cytotoxicity in noncancerous cells” value [4] was “null effect” and the “IC50 higher than that of sorafenib” value (HepG2 [5]) was 1.7 fold. For the same compound, the “IC50 (CL)” value (HepG2 [5]; substance alone, 4 h exposure + 72 h recovery, CL confidence limits) was 78.7 (76.8–80.5) *** µg/mL, the “reduction of sorafenib IC50” value (HepG2 [6]) was ~6 fold and the “combination index (CI) with sorafenib” value (HepG2 [6]; CI lower than 1 = synergistic) was 0.29. For the same compound, the “increase of sorafenib cytotoxicity” value (HepG2 [6]; sorafenib 1 µg/mL) was 20%, the “increase of sorafenib cytotoxicity” value (HepG2 [6]; sorafenib 10 µg/mL) was ~44% and the “reduction of MRP1 gene expression” value (MRP1 [7]) was 3 fold. For the same compound, the “effect on Pgp expression (immunofluorescence)” value (Pgp [8]; substance alone, sorafenib and sesquiterpenes 10 µg/mL, verapamil 1 µg/mL) was “did not affect”, the “reduction of Pgp expression compared to control” value (Pgp [8]; [23]) was ~1.8 fold and the “safety in vivo up to” value [9] was ≤ 100 mg/kg. For the same compound, the “reduction of MRP2 expression with respect to sorafenib” value (MRP2 [10]; substance 10 µg/mL in combination with sorafenib 10 µg/mL) was 1.6 fold, the “increase of MRP2 expression (immunofluorescence)” value (MRP2 [10]; substance alone, 10 µg/mL) was 1.2 fold and the “increase of rhodamine 123 accumulation” value (Pgp [11]) was ~2.5 fold. The “reduction of MRP2 gene expression” value (MRP2 [12]) was 3 fold, the “increase of calcein-AM accumulation” value (MRP1/2 [13]) was ~1.4 fold and the “increase of MDR1 gene expression with respect to control” value (MDR1; [22]) was 4.7 fold. The “downregulation of MDR1 gene with respect to sorafenib alone” value (MDR1; substance in combination with sorafenib) was 1.3 fold, the “wound area / cell migration after 72 h” value (Bx-PC3 cells; substance alone, sesquiterpenes 10 µg/mL, verapamil/MK571 1 µg/mL) was “blocked cell migration” and the “increase of wound area” value (Bx-PC3 cells; substance in combination with sorafenib 10 µg/mL, reference and time not stated) was ~5 fold. The “IC50 higher than that of sorafenib” value (Bx-PC3 [14]) was 2.1 fold, the “inhibition of cell viability” value (Bx-PC3 [14]; 50 µg/mL) was 30% and the “inhibition of cell viability” value (Bx-PC3 [14]; 250 µg/mL) was 95%. For the same compound, the “IC50 (CL)” value (Bx-PC3 [14]; [22]) was 65.3 (62.1–68.7) *** µg/mL, the “increase of calcein-AM accumulation” value (MRP1/2 [15]) was ~3.0 fold and the “reduction of MRP1 expression with respect to sorafenib” value (MRP1 [16]) was 1.5 fold. The “considered safe up to (approved as flavoring)” value [17] was ≤ 109 mg/kg/die, the “increase of rhodamine 123 accumulation” value (Pgp [18]) was “approximately 2.7 fold” and the “reduction of sorafenib IC50” value (Mz-ChA-1 [19]) was ~1.5 fold. The “combination index (CI) with sorafenib” value (Mz-ChA-1 [19]; CI lower than 1 = synergistic) was 0.76, the “increase of sorafenib cytotoxicity” value (Mz-ChA-1 [19]; sorafenib 10 µg/mL, verapamil/MK571 1 µg/mL or sesquiterpenes 10 µg/mL) was 14% and the “increase of sorafenib cytotoxicity” value (Mz-ChA-1 [19]; sorafenib 50 µg/mL, sesquiterpenes 10 µg/mL) was 13%. The “increase of calcein-AM accumulation” value (MRP1/2 [20]) was “approximately 1.3 fold” and the “increase of rhodamine 123 accumulation” value (Pgp [21]) was ~1.2 fold.

Source: PMC9231089, “Sorafenib Chemosensitization by Caryophyllane Sesquiterpenes in Liver, Biliary, and Pancreatic Cancer Cells: The Role of STAT3/ABC Transporter Axis” (Pharmaceutics, 2022)
